Activity calls are given as the source filed them. The calls are words filed in the database; no cut-off is given here.
Key:
Format in all cases: tissue-based
Details in all cases: Muscle tissue
[1] = species on record: Oryctolagus cuniculus; experiment: Inhibition of caspase-like activity of rabbit muscle 26S proteasome after 30 mins
[2] = species on record: Oryctolagus cuniculus; experiment: Inhibition of caspase-like activity of rabbit muscle 26S proteasome at 10 to 20 uM after 30 mins
[3] = species on record: Oryctolagus cuniculus; experiment: Inhibition of chymotrypsin-like activity of rabbit muscle 26S proteasome upto 500 uM after 30 mins
[4] = species on record: Oryctolagus cuniculus; experiment: Inhibition of trypsin-like activity of rabbit muscle 26S proteasome upto 500 uM after 30 mins
[5] = species on record: Oryctolagus cuniculus; experiment: Inhibition of caspase-like activity of rabbit muscle 26S proteasome at 50 to 100 uM after 30 mins
[6] = species on record: Oryctolagus cuniculus; experiment: Inhibition of trypsin-like activity of rabbit muscle 26S proteasome at 50 to 100 uM after 30 mins

Activity [1] | inhibition [2] [%] | Activity [5] | Structure (SMILES) | Activity [3] | Activity [4] | Activity [6]
Active |  |  | CCCC[C@H](NC(=O)[C@@H]1CCCN1C(=O)[C@H](C)NC(=O)CN=[N+]=[N-])C(=O)N[C@H](/C=C/S(=O)(=O)c1ccc(O)cc1)CC(C)C |  |  | 
Active | > 90 | Active | CCCC[C@H](NC(=O)[C@@H]1CCCN1C(=O)[C@H](C)NC(C)=O)C(=O)N[C@H](/C=C/S(=O)(=O)c1ccc(O)cc1)CC(C)C | inactive | inactive | Active
